Molecular target: T1, human SCD1 enzyme (Homo sapiens, UniProt O00767)
T1 sequence (O00767 1-359): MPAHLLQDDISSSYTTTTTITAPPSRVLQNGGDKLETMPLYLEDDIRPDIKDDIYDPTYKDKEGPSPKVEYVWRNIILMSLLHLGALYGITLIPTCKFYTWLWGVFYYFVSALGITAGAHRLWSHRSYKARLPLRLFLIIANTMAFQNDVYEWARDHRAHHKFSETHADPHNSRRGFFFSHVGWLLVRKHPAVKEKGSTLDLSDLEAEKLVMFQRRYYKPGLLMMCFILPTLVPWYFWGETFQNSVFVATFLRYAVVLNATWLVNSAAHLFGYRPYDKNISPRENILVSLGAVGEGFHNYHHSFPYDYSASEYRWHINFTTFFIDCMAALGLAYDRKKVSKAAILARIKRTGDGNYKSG
Test: Tritiated water release assay (conversion of radiolabeled stearoyl-CoA to oleoyl-CoA)
Type: biochemical
Settings: 10 μM concentration of test compounds; microsomal SCD1, 3H stearoyl CoA, 37° C. 30 minutes; percent of control reaction; read-out: % Inhibition
Experimental: The in-vitro activity of the compounds of the present invention against stearoyl coenzyme desaturase was determined by following conversion of radiolabeled-stearoyl-CoA to oleoyl-CoA using human SCD1 enzyme using a previously published assay procedure with some modifications (Barbara R Talamo and Konrad Bloch, Analytical Biochemistry, 1969, 29, 300-304). This assay protocol is only illustrative and is not meant to limit to the scope of the present invention.
In this assay the microsomal SCD1 enzyme desaturates its substrate, Stearoyl CoA (purchased from American Radiochemicals Ltd.) which is tritiated at C9 and C10 positions. Test compounds were dissolved in dimethylsulfoxide and tested at 10 μM final concentration. Before substrate addition, the test compound or standard reference compound (conjugated linoleic acid at 100 μM final concentration) were pre-incubated in reaction buffer with the enzyme for 10 minutes at 30° C. with shaking. Reaction buffer was prepared as described in literature (Obukowicz et al. JPET, 1998, 287, 157-166) except that the MgCl2, ATP (purchased from Sigma) and CoA (purchased from Sigma) concentrations were changed to 4.9 mM, 7.2 mM and 0.54 mM respectively. The desaturation reaction was initiated by addition of 0.5 μCi of ^3H stearoyl CoA and incubated at 37° C. for 30 minutes with shaking. A control reaction was set without any test compound/reference inhibitor to capture maximum enzymatic activity in the assay. Inhibition of enzyme activity was calculated as a percent of this control reaction giving maximum catalysis and the results are given in Table 5.
Table 5: Tritiated water release assay at 10 μM substrate concentration *Conjugated Linoleic acid was used as a reference standard

inhibition at 10 µM [%] | SMILES
96 | CC(=O)Oc1ccc(C#Cc2ccc(N3CCC(Oc4ccccc4F)C3)nn2)cc1 (stereo in doubt) [Example 70, 4-[{6-[(3S)-3-(2-Fluorophenoxy)azolan-1-yl]pyridazin-3-yl}ethynyl]phenyl acetate]
51 | O=C(c1ccccc1C(F)(F)F)N1CCN(c2ccc(C#CCO)nn2)CC1 [Example 3, 4-[6-(3-Hydroxy-1-propynyl)-3-pyridazinyl]piperazino-2-trifluoromethylphenyl-methanone]
24 | CCC(O)C#Cc1ccc(N2CCN(C(=O)c3ccccc3C(F)(F)F)CC2)nc1 (centres unmarked) [Example 6, 4-[5-(3-Hydroxy-1-pentynyl)-2-pyridyl]piperazino-2-trifluoromethylphenylmethanone]
42 | O=C(c1ccccc1C(F)(F)F)N1CCN(c2ccc(C#CC(O)c3ccccc3)cn2)CC1 (centres unmarked) [Example 8, 4-[5-(3-Hydroxy-3-phenyl-1-propynyl}-2-pyridyl}piperazino-2-trifluoromethylphenyl-methanone]
63 | O=C(c1ccccc1C(F)(F)F)N1CCN(c2ccc(C#CCOc3ccc(F)cc3)cn2)CC1 [Example 11, 4-[5-(3-(4-Fluorophenoxy)-1-propynyl)-2-pyridyl]piperazino-2-trifluoromethylphenyl-methanone]
92 | O=C(c1ccccc1C(F)(F)F)N1CCN(c2ccc(C#CCOc3ccc(O)cc3)cn2)CC1 [Example 13]
49 | CC(=O)NCC#Cc1ccc(N2CCN(C(=O)c3ccccc3C(F)(F)F)CC2)nc1 [Example 15, N1-(3-{6-[4-(2-Trifluoromethylbenzoyl)piperazino]-3-pyridyl}-2-propynyl)acetamide]
40 | CCCC#Cc1ccc(N2CCN(C(=O)c3ccccc3C(F)(F)F)CC2)nc1 [Example 17, 4-[5-(1-Pentynyl)-2-pyridyl]piperazino-2-trifluoromethylphenylmethanone]
91 | O=C(c1ccccc1C(F)(F)F)N1CCN(c2ccc(C#Cc3ccc(O)cc3)cn2)CC1 [Example 23, 4-{5-[2-(4-Hydroxyphenyl)-1-ethynyl]-2-pyridyl}piperazino-2-trifluoromethylphenyl methanone]
79 | O=C(c1ccccc1C(F)(F)F)N1CCN(c2ccc(C#Cc3ccc(O)c(F)c3)cn2)CC1 [Example 24, 1-{5-[(3-Fluoro-4-hydroxyphenyl)ethynyl]-2-pyridyl}piperazin-4-yl-(2-trifluoromethylphenyl)methanone]

Continued, compound first:

SMILES | inhibition at 10 µM [%]
CC(=O)Oc1cccc(C#Cc2ccc(N3CCC(Oc4ccccc4F)C3)nn2)c1 (stereo in doubt) [Example 68, 3-(2-{6-[(3S)-3-(2-Fluorophenoxy)azolan-1-yl]-3-pyridazinyl}-1-ethynyl)phenyl acetate] | 92
Oc1ccc(C#Cc2ccc(N3CCC(Oc4ccccc4F)C3)nn2)cc1 (stereo in doubt) [Example 71, 4-[{6-[(3S)-3-(2-Fluorophenoxy)azolan-1-yl]pyridazin-3-yl}ethynyl]phenol] | 95
O=C(c1ccccc1C(F)(F)F)N1CCN(c2ccc(C#CCO)cn2)CC1 [Example 1, 4-[5-(3-Hydroxy-1-propynyl)-2-pyridyl]piperazino-2-trifluoromethylphenylmethanone] | 36
O=C(c1cc(Cl)ccc1Cl)N1CCN(c2ccc(C#CCO)cn2)CC1 [Example 2, 4-[5-(3-Hydroxy-1-propynyl)-2-pyridyl]piperazino-2,5-dichlorophenylmethanone] | 57
CC(C)(O)C#Cc1cnc(N2CCN(C(=O)c3ccccc3C(F)(F)F)CC2)nc1 [Example 4, 4-[5-(3-Hydroxy-3-methyl-1-butynyl)-2-pyrimidinyl]piperazino-2-trifluoromethylphenyl-methanone] | 22
O=C(c1ccccc1C(F)(F)F)N1CCN(c2ccc(C#CC3(O)CCCC3)cn2)CC1 [Example 5, 4-{5-[2-(1-Hydroxycyclopentyl)-1-ethynyl]-2-pyridyl}piperazino-2-trifluoromethyl phenylmethanone] | 19
O=C(c1ccccc1C(F)(F)F)N1CCN(c2ccc(C#CC(O)C34CC5CC(CC(C5)C3)C4)cn2)CC1 (centres unmarked) [Example 7, 4-[5-{3-Hydroxy-3-(1-adamantyl)-1-propynyl}-2-pyridyl]piperazino-2-trifluoromethyl-phenylmethanone] | 0.35
O=C(c1ccccc1C(F)(F)F)N1CCN(c2ccc(C#CCOC3CCCC3)cn2)CC1 [Example 9, 4-[5-(3-Cyclopentyloxy-1-propynyl)-2-pyridyl]piperazino-2-trifluoromethylphenyl-methanone] | 86
CC(C)(C)c1ccc(OCC#Cc2ccc(N3CCN(C(=O)c4ccccc4C(F)(F)F)CC3)nc2)cc1 [Example 10] | 37
N#Cc1ccc(OCC#Cc2ccc(N3CCN(C(=O)c4ccccc4C(F)(F)F)CC3)nc2)nc1 [Example 12] | 11
Fc1ccc(OCC#Cc2ccc(N3CCN(c4ccc(C(F)(F)F)cn4)CC3)nc2)cc1 [Example 14, 1-{5-[3-(4-Fluorophenoxy)prop-1-yn-1-yl]-2-pyridyl}-4-(5-trifluoromethylpyridin-2-yl)piperazine] | 35
CCCCS(=O)(=O)NCC#Cc1ccc(N2CCN(C(=O)c3ccccc3C(F)(F)F)CC2)nc1 [Example 16, N1-(3-{6-[4-(2-Trifluoromethylbenzoyl)piperazino]-3-pyridyl}-2-propynyl)-1-butane sulfonamide] | 42
CC(C)(C)C#Cc1ccc(N2CCN(C(=O)c3ccccc3C(F)(F)F)CC2)nc1 [Example 18, 4-[5-(3,3-Dimethyl-1-butynyl)-2-pyridyl]piperazino-2-trifluoromethylphenylmethanone] | 26
CC(C)(C)C#Cc1ccc(N2CCN(C(=O)c3cc(Cl)ccc3Cl)CC2)nc1 [Example 19, 2,5-Dichlorophenyl-4-[5-(3,3-dimethyl-1-butynyl)-2-pyridyl]piperazinomethanone] | 14
O=C(c1ccccc1C(F)(F)F)N1CCN(c2ccc(C#Cc3ccccc3)cn2)CC1 [Example 20, 4-[5-(2-Phenyl-1-ethynyl)-2-pyridyl]piperazino-2-trifluoromethylphenylmethanone] | 38
O=C(c1cc(Cl)ccc1Cl)N1CCN(c2ccc(C#Cc3ccccc3)cn2)CC1 [Example 21, 2,5-Dichlorophenyl-4-[5-(2-phenyl-1-ethynyl)-2-pyridyl]piperazinomethanone] | 40
CC(=O)Oc1ccc(C#Cc2ccc(N3CCN(C(=O)c4ccccc4C(F)(F)F)CC3)nc2)cc1 [Example 22] | 84
O=C(c1ccccc1C(F)(F)F)N1CCN(c2ccc(C#Cc3cccc(O)c3)cn2)CC1 [Example 25, 4-{5-[2-(3-Hydroxyphenyl)-1-ethynyl]-2-pyridyl}piperazino-2-trifluoromethylphenyl methanone] | 97
CCOC(=O)COc1cccc(C#Cc2ccc(N3CCN(C(=O)c4ccccc4C(F)(F)F)CC3)nc2)c1 [Example 26, Ethyl-2-[3-(2-{6-[4-(2-trifluoromethylbenzoyl)piperazino]-3-pyridyl}-1-ethynyl)-phenoxy]acetate] | 27

— US20080182851A1, “ACETYLENE DERIVATIVES AS STEAROYL COA DESATURASE INHIBITORS” (Glenmark Pharmaceuticals S.A., priority 2006, published 2008)
